# US9938266B2, “Selective BACE1 inhibitors” (Eli Lilly and Company, priority 2015, dated 2018)
# Where two headings read alike, the source gives them in different places.
# Experiments:
# [1] = molecular target: T1, beta-secretase (Mus musculus, UniProt P56818); experiment: In Vivo Inhibition of Beta-Secretase (brain Abeta 1-x, PDAPP mice); details: young female PDAPP mice, three hours, vs vehicle; for Abeta 1-x peptide levels reduced in brain cortex: p<0.01
# T1 construct: from tissue; host or cells: brain (hippocampus, cortex) of young female PDAPP mice, in vivo
# Description: Several animal models, including mouse, guinea pig, dog, and monkey, may be used to screen for inhibition of beta-secretase activity in vivo following compound treatment. Animals used in this invention can be wild type, transgenic, or gene knockout animals. For example, the PDAPP mouse model, prepared as described in Games et al., Nature 373, 523-527 (1995), and other non-transgenic or gene knockout animals are useful to analyze in vivo inhibition of Abeta and sAPPbeta production in the presence of inhibitory compounds. Generally, 2 month old PDAPP mice, gene knockout mice or non-transgenic animals are administered compound formulated in vehicles, such as corn oil, beta-cyclodextran, phosphate buffers, PHARMASOLVE®, or other suitable vehicles via oral, subcutaneous, intra-venous, feeding, or other route of administration. One to twenty-four hours following the administration of compound, animals are sacrificed, and brains are removed for analysis of Abeta 1-x. “Abeta 1-x” as used herein refers to the sum of Abeta species that begin with residue 1 and end with a C-terminus greater than residue 28. This detects the majority of Abeta species and is often called “total Abeta”. Total Abeta peptides (Abeta 1-x) levels are measured by a sandwich ELISA, using monoclonal 266 as a capture antibody and biotinylated 3D6 as reporting antibody. (See May, et al., Journal of Neuroscience, 31, 16507-16516 (2011)).
# For acute studies, compound or appropriate vehicle is administered and animals are sacrificed at about 3 hours after dosing. Brain tissue, is obtained from selected animals and analyzed for the presence of Abeta 1-x. After chronic dosing brain tissues of older APP transgenic animals may also be analyzed for the amount of beta-amyloid plaques following compound treatment.
# For Example 1, three hours following a 3, 10, and 30 mg/kg oral dose of the compound to young female PDAPP mice, Abeta 1-x peptide levels are reduced approximately 22%, 42%, and 51% in brain hippocampus and 26%, 43%, and 59% in brain cortex p<0.01, compared to vehicle-treated mice.
# [2] = molecular target: T2, human BACE2 (1-460):Fc (Homo sapiens, UniProt Q9Y5Z0); experiment: BACE2 TMEM27 FRET Assay; format: biochemical
# T2 construct: made in house; host or cells: HEK293 (transient, secreted into conditioned media, Protein A purified)
# T2 sequence (Q9Y5Z0 21-460): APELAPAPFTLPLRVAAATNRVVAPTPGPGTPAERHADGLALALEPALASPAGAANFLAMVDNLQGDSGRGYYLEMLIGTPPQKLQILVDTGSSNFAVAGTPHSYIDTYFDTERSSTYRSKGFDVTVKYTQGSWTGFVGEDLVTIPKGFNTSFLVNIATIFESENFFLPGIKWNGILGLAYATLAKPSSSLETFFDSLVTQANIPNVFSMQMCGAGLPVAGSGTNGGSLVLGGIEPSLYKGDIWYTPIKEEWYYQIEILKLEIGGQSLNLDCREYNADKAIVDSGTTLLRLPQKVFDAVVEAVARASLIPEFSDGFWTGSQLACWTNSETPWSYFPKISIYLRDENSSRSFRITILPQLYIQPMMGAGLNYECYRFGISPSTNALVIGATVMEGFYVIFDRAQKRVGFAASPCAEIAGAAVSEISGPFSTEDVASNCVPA
# Protocol: (§1) To assess BACE1 selectivity over BACE2, the test compound is evaluated in FRET-based enzymatic assays using specific substrates for BACE1 and BACE2 as described below. For in vitro enzymatic and cellular assays, the test compound is prepared in DMSO to make up a 10 mM stock solution. The stock solution is serially diluted in DMSO to obtain a ten-point dilution curve with final compound concentrations ranging from 10 μM to 0.05 nM in a 96-well round-bottom plate before conducting the in vitro enzymatic and whole cell assays.
# Human BACE1 (accession number: AF190725) and human BACE2 (accession number: AF 204944) are cloned from total brain cDNA by RT-PCR. […]
# (§2) Conditioned media of HEK293 cell transiently transfected with huBACE1:Fc or huBACE2:Fc cDNA are collected. […] The purity of final product is assessed by electrophoresis in 4-20% Tris-Glycine SDS-PAGE. […]
# Transmembrane protein 27 (TMEM27) (Accession Number NM_020665), also known as Collectrin) is a recently described substrate for BACE2, but not BACE1 (Esterhazy, et al, Cell Metabolism, 14, 365-377 (2011)). […] The RFU of the mixture at time 0 is recorded at excitation wavelength 430 nm and emission wavelength 535 nm. […] The RFU at the end of incubation is recorded with the same excitation and emission settings used at time 0. […]
# [3] = molecular target: T3, human BACE1(1-460):Fc (Homo sapiens, UniProt P56817); experiment: BACE1 FRET Assay; format: biochemical; details: purified recombinant huBACE1:Fc, n=6, mean±SEM
# T3 construct: made in house; host or cells: HEK293 (transient, secreted into conditioned media, Protein A purified)
# Protocol: as §1
# Human BACE1 (accession number: AF190725) and human BACE2 (accession number: AF 204944) are cloned from total brain cDNA by RT-PCR. The nucleotide sequences corresponding to amino acid sequences #1 to 460 are inserted into the cDNA encoding human IgG1 (Fc) polypeptide (Vassar et al., Science, 286, 735-742 (1999)). […]
# as §2
# Serial dilutions of the test compounds are prepared as described above. […] The RFU of the mixture at time 0 is recorded at excitation wavelength 355 nm and emission wavelength 460 nm, after brief mixing on a plate shaker. […] The RFU at the end of incubation is recorded with the same excitation and emission settings used at time 0. […]
# [4] = molecular target: T4, BACE1 (Homo sapiens, UniProt P56817); experiment: SH-SY5YAPP695Wt Whole Cell Assay (Abeta ELISA); format: cell-based; details: SH-SY5YAPP695Wt cells, 24 hours
# T4 construct: endogenous in cells; host or cells: SH-SY5Y (ATCC CRL2266) stably expressing human APP695Wt
# Protocol: as §1
# The routine whole cell assay for the measurement of inhibition of BACE1 activity utilizes the human neuroblastoma cell line SH-SY5Y (ATCC Accession No. CRL2266) stably expressing a human APP695Wt cDNA. Cells are routinely used up to passage number 6 and then discarded.
# SH-SY5YAPP695Wt cells are plated in 96 well tissue culture plates at 5.0×10^4 cells/well in 200 μL culture media (50% MEM/EBSS and Ham's F12, 1× each sodium pyruvate, non-essential amino acids and Na bicarbonate containing 10% FBS). The following day, media is removed from the cells, fresh media added then incubated at 37° C. for 24 hours in the presence/absence of test compound at the desired concentration range.
# At the end of the incubation, conditioned media are analyzed for evidence of beta-secretase activity by analysis of Abeta peptides 1-40 and 1-42 by specific sandwich ELISAs. […]
# T1 sequence (P56818 46-501): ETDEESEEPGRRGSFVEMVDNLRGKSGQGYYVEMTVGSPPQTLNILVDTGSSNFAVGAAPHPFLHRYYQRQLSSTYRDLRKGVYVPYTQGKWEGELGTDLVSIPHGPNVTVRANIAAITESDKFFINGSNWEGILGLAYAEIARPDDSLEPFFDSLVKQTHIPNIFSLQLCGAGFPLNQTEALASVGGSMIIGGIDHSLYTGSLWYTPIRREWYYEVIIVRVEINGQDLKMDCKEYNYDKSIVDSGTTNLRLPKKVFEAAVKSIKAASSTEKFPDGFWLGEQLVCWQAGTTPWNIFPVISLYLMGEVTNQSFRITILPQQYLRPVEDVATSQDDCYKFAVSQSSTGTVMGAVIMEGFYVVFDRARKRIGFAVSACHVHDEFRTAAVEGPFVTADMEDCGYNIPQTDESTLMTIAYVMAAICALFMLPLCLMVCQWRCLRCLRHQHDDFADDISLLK
# T4 sequence (P56817 46-501): as the sequence (P56818 46-501) above, with S6P, I162V, I165L, T180S, A182V, V340I, A393L, H443Q counted along it
# T3 sequence (P56817 22-460): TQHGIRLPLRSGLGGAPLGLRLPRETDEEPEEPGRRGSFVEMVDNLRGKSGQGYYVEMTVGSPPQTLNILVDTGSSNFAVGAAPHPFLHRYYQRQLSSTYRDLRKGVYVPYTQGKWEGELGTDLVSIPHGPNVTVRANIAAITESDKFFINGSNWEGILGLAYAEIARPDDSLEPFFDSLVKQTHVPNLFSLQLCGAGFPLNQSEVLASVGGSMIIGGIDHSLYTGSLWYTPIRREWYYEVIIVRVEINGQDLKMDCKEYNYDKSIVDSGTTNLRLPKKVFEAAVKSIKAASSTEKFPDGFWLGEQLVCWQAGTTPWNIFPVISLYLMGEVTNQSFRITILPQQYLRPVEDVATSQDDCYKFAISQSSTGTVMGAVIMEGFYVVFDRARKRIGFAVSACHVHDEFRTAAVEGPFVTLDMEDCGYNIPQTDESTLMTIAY
smiles,measurement,setting,value
"NC1=N[C@@]2(c3cc(NC(=O)c4cnc(-n5cncn5)cn4)ccc3F)C[C@@H](OC3CC3)C[C@H]2CS1 [Example 1, N-[3-[(4aR,6S,7aS)-2-Amino-6-(cyclopropoxy)-4a,5,6,7-tetrahydro-4H-cyclopenta[d][1,3]thiazin-7a-yl]-4-fluoro-phenyl]-5-(1,2,4-triazol-1-yl)pyrazine-2-carboxamide]",Abeta 1-x peptide levels reduced in brain hippocampus,[1]; 3 mg/kg oral,approximately 22%
same,Abeta 1-x peptide levels reduced in brain cortex,[1]; 3 mg/kg oral,~26%
same,Abeta 1-x peptide levels reduced in brain hippocampus,[1]; 10 mg/kg oral,~42%
same,Abeta 1-x peptide levels reduced in brain cortex,[1]; 10 mg/kg oral,~43%
same,Abeta 1-x peptide levels reduced in brain hippocampus,[1]; 30 mg/kg oral,~51%
same,Abeta 1-x peptide levels reduced in brain cortex,[1]; 30 mg/kg oral,~59%
same,IC50,"[2]; huBACE2:Fc, TMEM27 FRET substrate, n=4, mean±SEM",87.3 ± 11.1 nM
same,ratio of BACE2 IC50 (TMEM27 FRET) to BACE1 IC50 (FRET),[2]; selectivity for BACE1 over BACE2,about 91 fold
same,IC50,[3],0.955 ± 0.093 nM
same,IC50,"[4]; n=3, mean±SEM, read-out: IC50 SH-SY5YAPP695Wt A-beta (1-42) ELISA",0.43 ± 0.08 nM
same,IC50,"[4]; n=4, mean±SEM, read-out: IC50 SH-SY5YAPP695Wt A-beta (1-40) ELISA",0.38 ± 0.14 nM
